From patent publication US20260226068A1, “IMIDAZOTRIAZINE IL-17A MODULATORS AND USES THEREOF” (DICE ALPHA, INC., priority 2023, published 2026)

Key:
IL-17A/A = biological target: T1, IL-17A/A (Homo sapiens, UniProt Q16552); assay: IL-17A/A HEK-Blue cell assay (SEAP reporter); format: cell-based; details: HEK-Blue IL-17A reporter cells, IL17A/A 5 ng/mL, 20 hours, SEAP read at A630; read-out: HEK-Blue IL17AA (IC50 for IL-17A/A inhibition)
T1 construct: purchased Genscript Z03228
T1 sequence (Q16552 24-155): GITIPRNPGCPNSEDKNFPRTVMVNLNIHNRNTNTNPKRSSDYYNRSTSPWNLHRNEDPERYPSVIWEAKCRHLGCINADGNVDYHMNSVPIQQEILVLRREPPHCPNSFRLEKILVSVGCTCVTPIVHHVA

IL-17A/F = biological target: T2, IL-17A/F (Homo sapiens, UniProt Q16552+Q96PD4); assay: IL-17A/F HEK-Blue cell assay (SEAP reporter); format: cell-based; details: HEK-Blue IL-17A reporter cells, IL17A/F 5 ng/mL, 20 hours, SEAP read at A630; read-out: HEK-Blue IL17AF (IC50 for IL-17A/F inhibition)
T2 construct: purchased R&D Systems
T2 sequence (Q16552 24-155): T1 sequence (Q16552 24-155)
T2 sequence (Q96PD4 31-163): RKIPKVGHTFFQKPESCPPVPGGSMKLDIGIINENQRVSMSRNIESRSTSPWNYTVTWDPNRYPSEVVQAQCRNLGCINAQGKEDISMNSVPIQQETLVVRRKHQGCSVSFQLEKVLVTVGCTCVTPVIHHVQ

Row | Structure (SMILES) | IC50 (IL-17A/A) [nM] | IC50 (IL-17A/F) [nM]
1 | O=C(N[C@H](c1cn2nc(C[C@@H]3C[C@@H](C(F)(F)F)CNC3=O)cnc2n1)C1CCC(F)(F)CC1)c1nonc1C1CC1 (single isomer, unassigned) [Compound 33] | 100 to 1000 | > 1000
2 | CCn1nccc1C(=O)N[C@H](c1cn2nc(C[C@H]3C[C@@H](C(F)(F)F)CNC3=O)c(C3CCN(C)CC3)nc2n1)C1CCC(F)(F)CC1 [Compound 300, N—((S)-(4,4-difluorocyclohexyl)(3-(1-methylpiperidin-4-yl)-2-(((3R,5R)-2-oxo-5-(trifluoromethyl)piperidin-3-yl)methyl)imidazo[1,2-b][1,2,4]triazin-6-yl)methyl)-1-ethyl-1H-pyrazole-5-carboxamide] | 100 to 1000 | > 1000
3 | O=C(N[C@H](c1cn2nc(C[C@H]3C[C@@H](C(F)(F)F)CNC3=O)c(C3CCCOC3)nc2n1)[C@@H]1CCCC(F)(F)C1)c1nonc1C1CC1 (single isomer, unassigned) [Compound 209] | < 100 | > 1000
4 | CCn1nccc1C(=O)N[C@H](c1cn2nc(C[C@H]3C[C@@H](C(F)(F)F)CNC3=O)c(C3(C)CCOC3)nc2n1)C1CCC(F)(F)CC1 (single isomer, unassigned) [Compound 178] | < 100 | > 1000
5 | CCn1nccc1C(=O)N[C@H](c1cn2nc(C[C@H]3C[C@@H](C(F)(F)F)CNC3=O)c([C@@H](C)N3CCOCC3)nc2n1)C1CCC(F)(F)CC1 (single isomer, unassigned) [Compound 227] | < 100 | 100 to 1000
6 | CCn1nccc1C(=O)N[C@H](c1cn2nc(CC3C[C@@H](C(F)(F)F)CNC3=O)c(N3CCOCC3)nc2n1)C1CCC(F)(F)CC1 (mixture of isomers) [Compound 19, N-((1S)-(4,4-difluorocyclohexyl)(3-morpholino-2-(((5R)-2-oxo-5-(trifluoromethyl)piperidin-3-yl)methyl)imidazo[1,2-b][1,2,4]triazin-6-yl)methyl)-1-ethyl-1H-pyrazole-5-carboxamide] | 100 to 1000 | > 1000
7 | CCn1nccc1C(=O)N[C@H](c1cn2nc(C[C@H]3CC(F)(F)CNC3=O)c(C3CCOCC3)nc2n1)[C@H]1CC[C@H](C)CC1 [Compound 297] | < 100 | 100 to 1000
8 | CCn1nccc1C(=O)N[C@H](c1cn2nc(C[C@H]3C[C@H](C(F)(F)F)CNC3=O)c(C(C)(C)C)nc2n1)C1CCC(F)(F)CC1 [Compound 156, N-((1S)-(4,4-difluorocyclohexyl)(3-(tert-butyl)-2-(((3R,5S)-2-oxo-5-(trifluoromethyl)piperidin-3-yl)methyl)imidazo[1,2-b][1,2,4]triazin-6-yl)methyl)-1-ethyl-1H-pyrazole-5-carboxamide] | < 100 | > 1000
9 | CCn1nccc1C(=O)N[C@H](c1cn2nc(C[C@H]3C[C@@H](C(F)(F)F)NC3=O)c(C3CCOCC3)nc2n1)C1CCC(F)(F)CC1 [Compound 151, N—((S)-(4,4-difluorocyclohexyl)(2-(((3R,5S)-2-oxo-5-(trifluoromethyl)pyrrolidin-3-yl)methyl)-3-(tetrahydro-2H-pyran-4-yl)imidazo[1,2-b][1,2,4]triazin-6-yl)methyl)-1-ethyl-1H-pyrazole-5-carboxamide] | < 100 | 100 to 1000
10 | CC[C@@H](c1ccc(F)cc1)[C@H](NC(=O)c1ccnn1CC)c1cn2nc(C[C@H]3C[C@@H](C(F)(F)F)CNC3=O)cnc2n1 [Compound 60, 1-ethyl-N-((1S,2S)-2-(4-fluorophenyl)-1-(2-(((3R,5R)-2-oxo-5-(trifluoromethyl)piperidin-3-yl)methyl)imidazo[1,2-b][1,2,4]triazin-6-yl)butyl)-1H-pyrazole-5-carboxamide] | < 100 | > 1000

Next, values leading:

Row | IC50 (IL-17A/A) [nM] | IC50 (IL-17A/F) [nM] | Structure (SMILES)
11 | 100 to 1000 | > 1000 | CCn1nccc1C(=O)N[C@H](c1cn2nc(C[C@H]3C[C@@H](C(F)(F)F)CNC3=O)c([C@H]3CCCCN3)nc2n1)C1CCC(F)(F)CC1 (single isomer, unassigned) [Compound 325]
12 | < 100 | 100 to 1000 | CCn1nccc1C(=O)N[C@H](c1cn2nc(C[C@H]3C[C@@H](C(F)(F)F)CNC3=O)c(CN3CCOCC3)nc2n1)[C@H]1CC[C@H](C)CC1 [Compound 374, 1-ethyl-N—((S)-((1r,4S)-4-methylcyclohexyl)(3-(morpholinomethyl)-2-(((3R,5R)-2-oxo-5-(trifluoromethyl)piperidin-3-yl)methyl)imidazo[1,2-b][1,2,4]triazin-6-yl)methyl)-1H-pyrazole-5-carboxamide]
13 | < 100 | > 1000 | CCn1nccc1C(=O)N[C@H](c1cn2nc(C[C@H]3CC4(CC4)CNC3=O)c(C3CCOCC3)nc2n1)C1CCC(F)(F)CC1 [Compound 423]
14 | < 100 | > 1000 | CCn1nccc1C(=O)N[C@H](c1cn2nc(C[C@H]3C[C@@H](C(F)(F)F)CNC3=O)c(C3CCOCC3)nc2n1)[C@H]1C[C@H]2C[C@H]2C1 [Compound 292, N—((S)-((1R,3r,5S)-bicyclo[3.1.0]hexan-3-yl)(2-(((3R,5R)-2-oxo-5-(trifluoromethyl)piperidin-3-yl)methyl)-3-(tetrahydro-2H-pyran-4-yl)imidazo[1,2-b][1,2,4]triazin-6-yl)methyl)-1-ethyl-1H-pyrazole-5-carboxamide]
15 | 100 to 1000 | > 1000 | CCn1nccc1C(=O)N[C@H](c1cn2nc(CC3C[C@H](C(F)(F)F)CNC3=O)c(N(C)C)nc2n1)C1CCC(F)(F)CC1 (single isomer, unassigned) [Compound 51]
16 | < 100 | > 1000 | CCn1nccc1C(=O)N[C@H](c1cn2nc(C[C@H]3C[C@@H](C(F)(F)F)CNC3=O)c(OC(C)C)nc2n1)C1CCC(F)(F)CC1 [Compound 417, N—((S)-(4,4-difluorocyclohexyl)(3-isopropoxy-2-(((3R,5R)-2-oxo-5-(trifluoromethyl)piperidin-3-yl)methyl)imidazo[1,2-b][1,2,4]triazin-6-yl)methyl)-1-ethyl-1H-pyrazole-5-carboxamide]
17 | < 100 | > 1000 | CCn1nncc1C(=O)N[C@H](c1cn2nc(C[C@H]3C[C@@H](C(F)(F)F)CNC3=O)c(C3CCOCC3)nc2n1)C1CCC(F)(F)CC1 [Compound 364, N—((S)-(4,4-difluorocyclohexyl)(2-(((3R,5R)-2-oxo-5-(trifluoromethyl)piperidin-3-yl)methyl)-3-(tetrahydro-2H-pyran-4-yl)imidazo[1,2-b][1,2,4]triazin-6-yl)methyl)-1-ethyl-1H-1,2,3-triazole-5-carboxamide]
18 | < 100 | > 1000 | CCn1nccc1C(=O)N[C@H](c1cn2nc(C[C@H]3C[C@@H](C(F)(F)F)CNC3=O)c([C@@H]3CN(C)CCO3)nc2n1)C1CCC(F)(F)CC1 (single isomer, unassigned) [Compound 376]
19 | < 100 | 100 to 1000 | CCn1nccc1C(=O)N[C@H](c1cn2nc(CC3C[C@@H](C(F)(F)F)CNC3=O)c(N3CCOCC3)nc2n1)[C@@H]1CCCC(F)(F)C1 (single isomer, unassigned) [Compound 95]
